ChEMBL document CHEMBL6115030, “Systematic All-Hydrocarbon Stapling Analysis for Cecropin A Generates a Potent and Stable Antimicrobial Peptide” (J Med Chem, 2025)
Active and inactive are the calls of the source. The rule behind the calls is not given here. Bridge positions count the residues as written; N and C are the ends. Square brackets hold non-standard residues; d marks the D form. Peptide text beside a SMILES is read from it. * marks the point of attachment. X1 = CC[C@H](C)CCCCC(=O)*; dDab = NCC[C@@H](N)C(=O)O; Dab = NCC[C@H](N)C(=O)O

Columns and labels:
Escherichia coli [1] = experiment: In vivo antibacterial activity against Escherichia coli intraperitoneally injected into C57BL/6 mouse peritonitis model assessed as mouse survival at 2.5 mg/kg, ip measured after 48 hrs relative to control; type: functional
Escherichia coli [2] = experiment: In vivo antibacterial activity against Escherichia coli intraperitoneally injected into C57BL/6 mouse peritonitis model assessed as reduction in bacterial load in lung at 2.5 mg/kg, ip measured after 48 hrs relative to control; type: functional, organism-based
Mus musculus [3] = experiment: In vivo anti-inflammatory efficacy in Escherichia coli intraperitoneally injected into C57BL/6 mouse peritonitis model assessed as reduction in IL-1beta level in blood at 2.5 mg/kg, ip measured after 48 hrs by ELISA; type: functional, organism-based
Escherichia coli [4] = experiment: In vivo antibacterial activity against Escherichia coli intraperitoneally injected into C57BL/6 mouse peritonitis model assessed as reduction in bacterial load in kidney at 2.5 mg/kg, ip measured after 48 hrs relative to control; type: functional, organism-based
Mus musculus [5] = experiment: In vivo anti-inflammatory efficacy in Escherichia coli intraperitoneally injected into C57BL/6 mouse peritonitis model assessed as reduction in TNF-alpha level in blood at 2.5 mg/kg, ip measured after 48 hrs by ELISA; type: functional, organism-based
Escherichia coli [6] = experiment: In vivo antibacterial activity against Escherichia coli intraperitoneally injected into C57BL/6 mouse peritonitis model assessed as reduction in bacterial load in spleen at 2.5 mg/kg, ip measured after 48 hrs relative to control; type: functional, organism-based
Mus musculus [7] = experiment: In vivo anti-inflammatory efficacy in Escherichia coli intraperitoneally injected into C57BL/6 mouse peritonitis model assessed as reduction in IL-6 level in blood at 2.5 mg/kg, ip measured after 48 hrs by ELISA; type: functional, organism-based
Escherichia coli [8] = experiment: In vivo antibacterial activity against Escherichia coli intraperitoneally injected into C57BL/6 mouse peritonitis model assessed as reduction in bacterial load in liver at 2.5 mg/kg, ip measured after 48 hrs relative to control; type: functional, organism-based
Escherichia coli [9] = experiment: In vivo antibacterial activity against Escherichia coli intraperitoneally injected into C57BL/6 mouse peritonitis model assessed as reduction in bacterial load in blood at 2.5 mg/kg, ip measured after 48 hrs relative to control; type: functional, organism-based
Pseudomonas aeruginosa = experiment: Antibacterial activity against Pseudomonas aeruginosa PAO1 assessed as inhibition of bacterial growth measured after 24 hrs by broth microdilution method; type: functional
[10] = Hemolytic activity in human RBC assessed as hemolysis incubated for 1 hr by microplate reader; type: toxicity, cell-based, Erythrocyte; conditions: red blood cells
[11] = Toxicity in C57BL/6 female mouse assessed as haemorrhagic point and blurred white pulp boundary in liver at 25 mg/kg, ip measured during 14 days of study by H and E staining based analysis; type: organism-based; conditions: in vivo, 336 h, time 14 day
[12] = Toxicity in C57BL/6 female mouse assessed as juxtaglomerular cells and interstitial fibrous tissues in kidney at 25 mg/kg, ip measured during 14 days of study by H and E staining based analysis; type: organism-based; conditions: in vivo, 336 h, time 14 day
[13] = Toxicity in C57BL/6 mouse assessed as death at 25 mg/kg, ip measured during 14 days of study; type: organism-based; conditions: in vivo, 336 h, time 14 day
Staphylococcus aureus = experiment: Antibacterial activity against Staphylococcus aureus ATCC 25923 assessed as inhibition of bacterial growth measured after 24 hrs by broth microdilution method; type: functional
[14] = Stability of the compound in human serum assessed as remaining peptide by RP-HPLC analysis; type: ADME, cell-free
Klebsiella pneumoniae = experiment: Antibacterial activity against Klebsiella pneumoniae ATCC 13883 assessed as inhibition of bacterial growth measured after 24 hrs by broth microdilution method; type: functional
[15] = Toxicity in C57BL/6 female mouse assessed as haemorrhagic point and blurred white pulp boundary in spleen at 25 mg/kg, ip measured during 14 days of study by H and E staining based analysis; type: organism-based; conditions: in vivo, 336 h, time 14 day
[16] = Stability of the compound in human serum assessed as peptide degradation by RP-HPLC analysis; type: ADME, cell-free; conditions: read-out: T50 (converted)
[17] = Toxicity in C57BL/6 mouse assessed as increase in body weight at 25 mg/kg, ip measured during 14 days of study; type: organism-based; conditions: in vivo, 336 h, time 14 day
[18] = Toxicity in C57BL/6 mouse assessed as death at 50 mg/kg, ip measured on day 4; type: organism-based; conditions: in vivo, 96 h, time 4 day
[19] = Stability of the compound in human serum assessed as retention time by RP-HPLC analysis; type: ADME, cell-free
[20] = Toxicity in C57BL/6 female mouse assessed as apparent inflammatory exudates ([…], neutrophiles, macrophages) in lungs at 25 mg/kg, ip measured during 14 days of study by H and E staining based analysis; type: organism-based; conditions: in vivo, 336 h, time 14 day
Cell membrane = experiment: Induction of Outer membrane damage in Escherichia coli assessed as irregular collapsed and rough surface membrane at 5 uM measured after 24 hrs by SEM imaging analysis

Molecule	Activity (Escherichia coli [1])	Activity (Escherichia coli [2])	Activity (Mus musculus [3])	Activity (Escherichia coli [4])	Activity (Mus musculus [5])	Activity (Escherichia coli [6])	Activity (Mus musculus [7])	Activity (Escherichia coli [8])	Activity (Escherichia coli [9])	also measured
CC(C)CCCCC(=O)N[C@@H](CCN)C(=O)N[C@H](C(=O)N[C@@H](CCN)C(=O)N[C@H]1CCNC(=O)[C@H]([C@@H](C)O)NC(=O)[C@H](CCN)NC(=O)[C@H](CCN)NC(=O)[C@H](CC(C)C)NC(=O)[C@@H](Cc2ccccc2)NC(=O)[C@H](CCN)NC1=O)[C@@H](C)O.CC[C@H](C)CCCCC(=O)N[C@@H](CCN)C(=O)N[C@H](C(=O)N[C@@H](CCN)C(=O)N[C@H]1CCNC(=O)[C@H]([C@@H](C)O)NC(=O)[C@H](CCN)NC(=O)[C@H](CCN)NC(=O)[C@H](CC(C)C)NC(=O)[C@@H](Cc2ccccc2)NC(=O)[C@H](CCN)NC1=O)[C@@H](C)O (X1-[Dab]T[Dab][Dab][Dab][dF]L[Dab][Dab]T; lactam 4-C)	100%									
CC(C)CCCCC(=O)N[C@@H](CCN)C(=O)N[C@H](C(=O)N[C@@H](CCN)C(=O)N[C@H]1CCNC(=O)[C@H]([C@@H](C)O)NC(=O)[C@H](CCN)NC(=O)[C@H](CCN)NC(=O)[C@H](CC(C)C)NC(=O)[C@@H](Cc2ccccc2)NC(=O)[C@@H](CCN)NC1=O)[C@@H](C)O.CC[C@H](C)CCCCC(=O)N[C@@H](CCN)C(=O)N[C@H](C(=O)N[C@@H](CCN)C(=O)N[C@H]1CCNC(=O)[C@H]([C@@H](C)O)NC(=O)[C@H](CCN)NC(=O)[C@H](CCN)NC(=O)[C@H](CC(C)C)NC(=O)[C@@H](Cc2ccccc2)NC(=O)[C@@H](CCN)NC1=O)[C@@H](C)O (X1-[Dab]T[Dab][Dab][dDab][dF]L[Dab][Dab]T; lactam 4-C)		Active	Active	Active	Active	Active	Active	Active	Active	
Ac-KWKLFKKIEKVGQNIRDGIIKAGPAVAVVGQATQIAK-NH2	50%	Active	Active	Active	Active	Active	Active	Active	Active	MIC (Pseudomonas aeruginosa): 100 µM; HC50 at 1 h [10]: 174 µM; Activity [11]: Non-toxic; Activity [12]: Non-toxic; Activity [13]: Non-toxic; MIC (Staphylococcus aureus): > 100 µM; Stability [14]: > 50%; MIC (Klebsiella pneumoniae): 12.5 µM; Activity [15]: Non-toxic; half-life [16]: 2.17 h; Activity [17]: Toxic; Activity [18]: Toxic; Retention_time [19]: 21.69 min; Activity [20]: Non-toxic; Activity (Cell membrane): Active
